# Assay results as given in ChEMBL document CHEMBL1128811, “Isolation and structure of the exceptional Pterobranchia human cancer inhibitors cephalostatins 16 and 171” (1995).
# Assays:
# Type in all cases: functional
# Tumor Cell line [1] = test: In vitro cytotoxic potency against 60 human tumor cell lines at 10e-7 M concentration
# P388 = test: Effective dose against P388 cell line […]; conditions: Mus musculus, read-out: ED50 (the source's name)
# Tumor Cell line [2] = test: In vitro cytotoxic potency against 60 human tumor cell lines at 10e-8 M concentration
EC50 (P388) [ng/mL],Compound,GI50 (Tumor Cell line [1]) [nM],GI50 (Tumor Cell line [2]) [nM]
–,C[C@@H]1[C@]2(O[C@H]3C=C4[C@@H]5CC[C@H]6Cc7nc8c(nc7C[C@]6(C)[C@H]5C[C@@H](O)[C@]4(C)[C@]31O)C[C@@H]1CC[C@H]3C4=CC[C@@H]5[C@H](C)[C@@]6(OC[C@]45C(=O)C[C@@H]3[C@@]1(C)C8)OC(C)(C)C[C@H]6O)O[C@](C)(CO)C[C@H]2O [CEPHALOSTATIN 1],~1,–
< 1,C[C@@H]1[C@H]2CC=C3[C@@H]4CC[C@H]5Cc6nc7c(nc6C[C@]5(C)[C@@]4(O)CC(=O)[C@@]32CO[C@]12OC(C)(C)C[C@H]2O)C[C@@H]1CC[C@H]2C3=C[C@@H]4O[C@@]5(CC[C@](C)(O)CO5)[C@@H](C)[C@]4(O)[C@@]3(C)[C@H](O)C[C@@H]2[C@@]1(C)C7 [CEPHALOSTATIN 16],–,~1
